Experimental data published in patent US20130177991A1, “A[…] EMISSION LUMINOGEN-BASED URINARY PROTEIN DETECTION DEVICE FOR […] HEALTH” (NANO AND ADVANCED MATERIALS INSTITUTE LIMITED, priority 2012, published 2013).

Tests used:
[1] = biological target: T1, HSA (Homo sapiens, UniProt P02768); assay: Selectivity of fluorescence response to HSA against other proteins and DNAs; format: binding; settings: FIG. 3B, [SATPE]=5 μM, [protein]=100 μg/mL
T1 construct: purchased Sigma-Aldrich
Method: FIG. 3: (A) Binding isotherm of HSA to SATPE in artificial urine and PBS buffer; (B) Dependence of the FL intensity of SATPE at 475 nm on different proteins in artificial urine and PBS buffer. [SATPE]=5 μM; [protein]=100 μg/mL; λex=350 nm.
(§1) In another embodiment, Compound 1 is AIE-active as it emits faintly in PBS buffer but gives strong light upon aggregate formation. Its solution in PBS buffer is weakly luminescent at 390 nm in the absence of HSA (FIG. 2). […] The higher the HSA content, the stronger is the light emission. The detection limit can be squeezed to as low as 1 nM. In order to examine the feasibility of protein assay in body fluids, artificial urine is utilized as medium in the protein assay.

[2] = biological target: T1, HSA; assay: Fluorescence turn-on assay of HSA in PBS buffer; format: binding
Method: FIG. 2: (A) Fluorescent (FL) spectra of compound 1, SATPE in phosphate buffered saline (PBS) buffer containing different concentrations of HSA; (B) Change in the FL intensity at 475 nm with HSA concentration; Io=FL intensity in the absence of HSA. Inset: linear region of the binding isotherm of SATPE to HSA. [SATPE]=5 μM; λex=350 nm.
as §1

T1 sequence (P02768 25-609): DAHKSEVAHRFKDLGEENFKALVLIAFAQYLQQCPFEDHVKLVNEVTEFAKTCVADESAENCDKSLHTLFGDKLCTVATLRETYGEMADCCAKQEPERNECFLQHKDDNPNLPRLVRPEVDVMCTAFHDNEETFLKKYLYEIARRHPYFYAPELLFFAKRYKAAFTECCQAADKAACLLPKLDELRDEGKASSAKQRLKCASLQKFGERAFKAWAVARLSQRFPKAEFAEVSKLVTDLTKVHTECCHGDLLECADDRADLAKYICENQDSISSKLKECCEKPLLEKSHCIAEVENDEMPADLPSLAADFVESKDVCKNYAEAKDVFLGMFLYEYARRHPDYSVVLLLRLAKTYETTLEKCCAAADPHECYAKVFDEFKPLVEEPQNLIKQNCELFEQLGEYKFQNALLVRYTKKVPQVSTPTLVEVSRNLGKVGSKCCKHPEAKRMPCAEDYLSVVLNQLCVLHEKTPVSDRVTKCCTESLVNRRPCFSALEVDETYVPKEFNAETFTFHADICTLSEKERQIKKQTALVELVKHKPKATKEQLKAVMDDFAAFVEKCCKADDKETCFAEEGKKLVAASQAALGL

O=S(=O)([O-])CCCOc1ccc(C(=C(c2ccccc2)c2ccc(OCCCS(=O)(=O)[O-])cc2)c2ccccc2)cc1.[Na+].[Na+] [Compound 1]
response to other human proteins and DNAs [1]: no significant response
selectivity to HSA ([1]; artificial urine and PBS buffer): excellent selectivity to HSA
detection limit for HSA ([2]; emission at 475 nm): 1 nM
light emission upon addition of HSA ([2]; weakly luminescent at 390 nm in the absence of HSA): emit intensely at 475 nm
